Measurements published in publication PMC11271627, “Molecular dynamics-guided optimization of BGM0504 enhances dual-target agonism for combating diabetes and obesity” (Scientific Reports, 2024).

Key:
[1] = target: T1, Human GIPR (Homo sapiens, UniProt P48546); experiment: cAMP accumulation assay, GIPR; assay type: cell-based; details: CHO
T1 construct: expressed in transfected cells; host or cells: CHO cells
T1 sequence (P48546 22-466): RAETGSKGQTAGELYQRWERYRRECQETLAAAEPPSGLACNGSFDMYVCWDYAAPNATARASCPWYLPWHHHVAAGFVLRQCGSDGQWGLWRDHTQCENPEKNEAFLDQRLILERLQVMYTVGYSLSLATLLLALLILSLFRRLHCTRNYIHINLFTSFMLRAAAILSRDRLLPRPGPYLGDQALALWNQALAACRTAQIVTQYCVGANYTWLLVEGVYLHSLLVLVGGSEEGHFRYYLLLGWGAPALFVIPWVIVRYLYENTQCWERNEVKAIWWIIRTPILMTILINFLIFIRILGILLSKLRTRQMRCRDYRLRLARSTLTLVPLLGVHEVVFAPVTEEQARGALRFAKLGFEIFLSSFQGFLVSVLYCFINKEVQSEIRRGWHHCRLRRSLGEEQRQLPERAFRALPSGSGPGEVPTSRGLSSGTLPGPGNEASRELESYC
Experimental: (§1) These cells were then resuspended in 5 mL of the assay buffer, and their concentration was determined using a Vi-Cell Counter. […] Samples were subsequently added to the assay plate along with ECHO555. […] A volume of 10 µL of the cell suspension was added to the assay plate, with a density of 1000 cells/well for GLP-1R testing and 2000 cells/well for GIPR testing. The assay plate was then incubated in a 23°C incubator for 30 minutes. A starting concentration of 800 nM was used to prepare the cAMP standard curve, followed by a 4-fold 10-point serial dilution. These serially diluted cAMP standards were added to the assay plate at a volume of 10 µL/well. Subsequently, 10 µL of the cAMP detection solution was added to the assay plate, and the plate was incubated at room temperature for 1 hour, shielded from direct light. […] For data analysis, each data point’s cAMP level (nM) was calculated using the established cAMP standard curve. The percentage activity for each data point was determined using the formula: % Activity = (cAMP level of testing sample - average cAMP level of low control) / ([…] cAMP level of high control - average cAMP level of […] control) × 100%. Additionally, the ‘log(agonist) vs. response – variable slope’ model in GraphPad Prism 5.0 was used to fit the dose-response curve of each sample and calculate the EC50 value.

[2] = target: T2, Human Serum Albumin (HSA) protein (Homo sapiens, UniProt P02768); experiment: biochemical; assay type: binding
T2 construct: purified Human ALB (25–609)-His was immobilized
T2 sequence (P02768 25-609): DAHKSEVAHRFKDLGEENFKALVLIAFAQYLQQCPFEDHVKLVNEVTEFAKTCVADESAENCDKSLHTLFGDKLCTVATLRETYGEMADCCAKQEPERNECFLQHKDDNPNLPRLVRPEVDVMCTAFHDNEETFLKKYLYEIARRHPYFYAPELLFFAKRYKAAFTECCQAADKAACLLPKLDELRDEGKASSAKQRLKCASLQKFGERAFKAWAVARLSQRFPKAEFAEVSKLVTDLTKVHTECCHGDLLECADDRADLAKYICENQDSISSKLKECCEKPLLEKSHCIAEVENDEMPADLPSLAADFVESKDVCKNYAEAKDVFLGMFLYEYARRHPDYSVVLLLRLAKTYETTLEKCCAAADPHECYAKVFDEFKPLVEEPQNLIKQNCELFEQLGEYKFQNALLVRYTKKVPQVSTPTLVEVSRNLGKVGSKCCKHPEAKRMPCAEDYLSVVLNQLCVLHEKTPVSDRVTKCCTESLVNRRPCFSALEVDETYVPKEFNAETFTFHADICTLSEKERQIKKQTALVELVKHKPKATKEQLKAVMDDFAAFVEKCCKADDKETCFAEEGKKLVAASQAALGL
Excerpt: The buffer used was PBST (PBS with 0.02% Tween 20).

[3] = target: T3, Human GLP-1R (Homo sapiens, UniProt P43220); experiment: cAMP accumulation assay, GLP-1R; assay type: cell-based; details: HEK293 cells; relative to 10 nM GLP-1(7–37) high control; arithmetic mean ± SEM
T3 construct: expressed in transfected cells; host or cells: HEK293 cells
T3 sequence (P43220 24-463): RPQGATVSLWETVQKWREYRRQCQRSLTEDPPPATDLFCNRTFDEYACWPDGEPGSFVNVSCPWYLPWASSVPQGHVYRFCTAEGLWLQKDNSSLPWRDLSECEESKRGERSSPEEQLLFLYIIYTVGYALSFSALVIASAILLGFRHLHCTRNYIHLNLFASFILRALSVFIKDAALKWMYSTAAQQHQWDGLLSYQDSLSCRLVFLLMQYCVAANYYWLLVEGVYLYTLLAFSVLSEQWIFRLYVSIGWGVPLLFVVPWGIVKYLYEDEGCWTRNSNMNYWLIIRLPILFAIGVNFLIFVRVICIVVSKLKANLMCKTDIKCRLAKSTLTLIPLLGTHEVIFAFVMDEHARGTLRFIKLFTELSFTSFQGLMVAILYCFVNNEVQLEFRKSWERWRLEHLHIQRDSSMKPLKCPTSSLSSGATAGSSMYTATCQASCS
Experimental: as §1

SMILES | Emax [1] [%] | Kd [2] [nM] | Emax [3] [%]
CC[C@H](C)[C@H](NC(=O)[C@H](CC(C)C)NC(=O)[C@H](Cc1c[nH]c2ccccc12)NC(=O)[C@H](CCC(N)=O)NC(=O)[C@@H](NC(=O)[C@H](Cc1ccccc1)NC(=O)[C@H](C)NC(=O)[C@H](CCCCNC(=O)COCCOCCNC(=O)COCCOCCNC(=O)CC[C@H](NC(=O)CCCCCCCCCCCCCCCCCCC(=O)O)C(=O)O)NC(=O)[C@H](CCC(N)=O)NC(=O)[C@H](C)NC(=O)[C@@H](NC(=O)[C@H](CCCCN)NC(=O)[C@H](CC(=O)O)NC(=O)[C@H](CC(C)C)NC(=O)C(C)(C)NC(=O)[C@@H](NC(=O)[C@H](CO)NC(=O)[C@H](Cc1ccc(O)cc1)NC(=O)[C@H](CC(=O)O)NC(=O)[C@H](CO)NC(=O)[C@@H](NC(=O)[C@H](Cc1ccccc1)NC(=O)[C@@H](NC(=O)CNC(=O)[C@H](CCC(=O)O)NC(=O)C(C)(C)NC(=O)[C@@H](N)Cc1ccc(O)cc1)[C@@H](C)O)[C@@H](C)O)[C@@H](C)CC)[C@@H](C)CC)C(C)C)C(=O)N[C@@H](C)C(=O)NCC(=O)NCC(=O)N1CCC[C@H]1C(=O)N[C@@H](CO)C(=O)N[C@@H](CO)C(=O)NCC(=O)N[C@@H](C)C(=O)N1CCC[C@H]1C(=O)N1CCC[C@H]1C(=O)N1CCC[C@H]1C(=O)N[C@@H](CO)C(N)=O [Tirzepatide, reference compound] | 87.1 ± 7.6 | 86.3 | 84.1 ± 5
CC[C@H](C)[C@H](NC(=O)[C@H](CC(C)C)NC(=O)[C@H](Cc1c[nH]c2ccccc12)NC(=O)[C@H](CCC(N)=O)NC(=O)[C@@H](NC(=O)[C@H](Cc1ccccc1)NC(=O)[C@H](C)NC(=O)[C@H](CCCCN)NC(=O)[C@H](CCC(N)=O)NC(=O)[C@H](C)NC(=O)[C@@H](NC(=O)[C@H](CCCCN)NC(=O)[C@H](CC(=O)O)NC(=O)[C@H](CC(C)C)NC(=O)C(C)(C)NC(=O)[C@@H](NC(=O)[C@H](CO)NC(=O)[C@H](Cc1ccc(O)cc1)NC(=O)[C@H](CC(=O)O)NC(=O)[C@H](CO)NC(=O)[C@@H](NC(=O)[C@H](Cc1ccccc1)NC(=O)[C@@H](NC(=O)CNC(=O)[C@H](CCC(=O)O)NC(=O)C(C)(C)NC(=O)[C@@H](N)Cc1ccc(O)cc1)[C@@H](C)O)[C@@H](C)O)[C@@H](C)CC)[C@@H](C)CC)C(C)C)C(=O)N[C@@H](C)C(=O)NCC(=O)NCC(=O)N1CCC[C@H]1C(=O)N[C@@H](CO)C(=O)N[C@@H](CO)C(=O)NCC(=O)N[C@@H](C)C(=O)N1CCC[C@H]1C(=O)N1CCC[C@H]1C(=O)N1CCC[C@H]1C(=O)N[C@@H](CO)C(N)=O [Non-acylated Tirzepatide, reference compound] | 92.2 ± 1.7 |  | 96.1 ± 10.8
